Data reported in US6136842A, “Sulphur derivatives comprising an amide bond, method for preparing same, use thereof as drugs, and pharmaceutical compositions containing such derivatives” (Hoechst Marion Roussel, priority 1996, dated 2000).

Biological target: T1, endothelin-converting enzyme (ECE) (Homo sapiens, UniProt P42892)
T1 sequence (P42892 1-770): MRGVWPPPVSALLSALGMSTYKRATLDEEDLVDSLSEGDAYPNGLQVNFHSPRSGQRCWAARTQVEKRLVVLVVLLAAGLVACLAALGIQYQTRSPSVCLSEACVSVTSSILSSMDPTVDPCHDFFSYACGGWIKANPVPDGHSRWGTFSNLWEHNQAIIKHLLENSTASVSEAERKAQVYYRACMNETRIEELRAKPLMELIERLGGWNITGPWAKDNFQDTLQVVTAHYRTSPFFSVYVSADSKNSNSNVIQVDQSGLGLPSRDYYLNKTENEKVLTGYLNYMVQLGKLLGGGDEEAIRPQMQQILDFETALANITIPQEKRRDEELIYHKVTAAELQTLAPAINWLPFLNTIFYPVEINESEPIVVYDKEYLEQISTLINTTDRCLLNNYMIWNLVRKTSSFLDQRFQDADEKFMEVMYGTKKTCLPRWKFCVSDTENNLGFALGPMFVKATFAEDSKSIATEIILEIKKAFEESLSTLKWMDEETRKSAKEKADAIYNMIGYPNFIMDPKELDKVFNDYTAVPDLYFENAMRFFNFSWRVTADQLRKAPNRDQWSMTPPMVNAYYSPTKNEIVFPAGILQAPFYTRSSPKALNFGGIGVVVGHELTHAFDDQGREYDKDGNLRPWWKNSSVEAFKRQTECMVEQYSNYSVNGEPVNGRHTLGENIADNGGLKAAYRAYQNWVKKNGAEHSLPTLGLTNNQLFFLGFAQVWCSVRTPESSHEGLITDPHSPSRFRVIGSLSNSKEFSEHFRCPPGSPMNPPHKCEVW
Assay: Determination of the inhibitory effect of the endothelin-converting enzyme (ECE): cleavage of (2,3-^3 H)propionyl-b-ET-1(19-35)
Assay type: biochemical
Details: purified ECE, pre-incubated 30 minutes at 37° C., Tris maleate buffer pH=6.5, incubation one hour at 37° C.
Excerpt: Determination of the inhibitory effect of the endothelin-converting enzyme (ECE) A test is used, in which the product (2,3-^3 H)propionyl-b-ET-1(19-35) prepared as indicated below in a) is cleaved by ECE into the product (2,3-^3 H)propionyl-b-ET-1(19-21) in the presence of product P of which the inhibitory activity of ECE one wishes to determine as indicated below in b): the inhibitory activity of ECE of the product P will therefore be accordingly as high as the quantity of product of formula (II) formed, determined by counting the radioactivity, will be low. The operation is carried out as follows: b) Determination of the inhibitory activity of the endothelin-converting enzyme (ECE) […] The reaction is initiated by the addition of 10 μl of (2,3-^3 H)propionyl-b-ET-1(-19-35) prepared as indicated above in a), at a final concentration of 1.8.10^-12 M After incubation for one hour at 37° C., the reaction is stopped by the addition of 600 μl of ethyl acetate and the (2,3-^3 H)propionyl-b-ET-1(19-21) is extracted by mechanical agitation for 2 minutes. 300 μl of the organic phase is removed, 5 ml of liquid scintillator is added and the radioactivity is counted for 1 minute with a liquid scintillation counter. Each measurement is carried out in triplicate except for the ECE control (control enzyme, without the product the ECE inhibitory activity of which one wishes to test), for which the measurement is carried out six times. The percentage inhibition is calculated by establishing the relationship: [formula] The blank is carried out starting with the solution obtained without enzyme. The test was validated by its application to known inhibitors i.e. P1 which is phosphoramidon and P2 which is N-(phenylethylphosphonyl)-Leu-Trp (TAKEDA). From the cpm's obtained and by plotting the graph of the percentage of inhibition relative to the concentration of inhibitor (nM), the IC50 is calculated which therefore corresponds to the concentration which causes a 50% inhibition of ECE.

SMILES	IC50
O=C(N[C@@H](Cc1ccc(-c2ccccc2)cc1)c1nnn[nH]1)[C@@H](CS)Cc1ccccc1 [Example 9, (S,S)N-(2-((1,1'-biphenyl)-4-yl)-1-(1H-tetrazol-5-yl)ethyl)-alpha-(mercaptomethyl)-benzenepropanamide]	70 nM
O=C(N[C@@H](Cc1ccc(-c2cccs2)cc1)C(=O)O)C(CS)Cc1cccc(Br)c1 (single isomer, unassigned) [Example 7A]	120 nM
O=C(N[C@@H](Cc1c[nH]c2c(OCc3ccccc3)cccc12)C(=O)O)C(CS)Cc1cccc(Br)c1 (stereo partly drawn) [Example 8, N-[3-(3-bromophenyl)-2-(mercaptomethyl)-1-oxopropyl]-7-(phenylmethoxy)-Tryptophan]	150 nM
